For one assay, the system named is brown rice planthopper. Nature of the assay: whole plant or invertebrate. It counts as in vivo. The following applies: Oryza sativa, 120 h, immersion treatment of rice seedlings, second- to third-instar nymphs, 5 days after release, 25° C.
The test system of assay [1] is Haemaphysalis longicornis. Nature of the assay: Test for Examining Effect on Haemaphysalis longicornis (Test Example 3). It counts as in vivo. As to conditions: treated plastic vial, young mites, 24 hours after contact, 25° C., dark. As for the experimental part:
Test for Examining Effect on Haemaphysalis longicornis
A solution prepared so that the concentration of each Invention Compound therein was 100 ppm was used to treat a plastic vial. After the liquid chemical was air-dried, young mites were placed in the vial. This vial was allowed to stand under constant dark conditions at 25° C. and a relative humidity of 80-100%. At 24 hours after the contact with the chemical, the number of dead mites was recorded. The mortality (%) was determined using the following calculation formula. […] Mortality (%)=((number of dead ticks)/(number of all ticks))×100

Among the data in patent US9688634B2, “Pest control agent” (priority 2012, dated 2017) are mortality values, retold here.

The compound `CC(C)(C)c1ccc(C#Cc2ccncc2Br)cc1` [Compound No. 10, 3-bromo-4-((4-(tert-butyl)phenyl)ethynyl)pyridine] registered a mortality at 200 ppm in the assay on brown rice planthopper of at least 90%.

`CC(C)(C)c1ccc(C#Cc2ccncc2N)cc1` [Compound No. 30, 4-((4-(tert-butyl)phenyl)ethynyl)pyridine-3-amine]: the mortality at 200 ppm in the assay on brown rice planthopper was at least 90%. The same measure, in the same setting: for `CCCNc1cnccc1C#Cc1ccc(C(C)(C)C)cc1` [Compound No. 32, 4-((4-(tert-butyl)phenyl)ethynyl)-N-propylpyridine-3-amine] the value was at least 90%. Consider `C=CCc1cnccc1C#Cc1ccc(C(C)(C)C)cc1` [Compound No. 17, 3-allyl-4-((4-tert-butylphenyl)ethynyl)pyridine], for which the mortality at 200 ppm in the assay with brown rice planthopper was at least 90%. Moreover, the mortality at 100 ppm in assay [1] was at least 90%. As for `CCNc1cnccc1C#Cc1ccc(C(C)(C)C)cc1` [Compound No. 112, 4-((4-tert-butylphenyl)ethynyl)-N-ethylpyridine-3-amine], the mortality at 200 ppm with brown rice planthopper is at least 90%. Same read-out and setting: the figure for `CSc1cnccc1C#Cc1ccc(C(C)(C)C)cc1` [Compound No. 26, 4-((4-(tert-butyl)phenyl)ethynyl)-3-(methylthio)pyridine] is at least 90%. Still for that read-out and setting: the figure for `COc1cnccc1C#Cc1ccc(C(C)(C)C)cc1` [Compound No. 21, 4-((4-(tert-butyl)phenyl)ethynyl)-3-methoxypyridine] is at least 90%.
